Test results taken from patent US20150259331A1, “PROTOZOAN PARASITE GROWTH INHIBITORS” (Northeastern University, priority 2014, published 2015).

Experiments:
[1] = test system: T. brucei brucei Lister 427; assay: Trypanosome replication assay; assay type: cell-based, Trypanosoma brucei brucei; conditions: Trypanosoma brucei, 48 h, concentration giving 50% inhibition of growth of T brucei brucei Lister 427 cells; 48 h; values ±7%; read-out: Tbb EC50
[2] = test system: HepG2 cells; assay: HepG2 cell toxicity (MTT) assay; assay type: cell-based; conditions: Table 13; read-out: HepG2 TC50
[3] = test system: T. cruzi; assay: T. cruzi growth inhibition; assay type: cell-based, Trypanosoma cruzi; conditions: Trypanosoma cruzi
[4] = test system: L. major promastigote; assay: L. major promastigote assay; assay type: cell-based; conditions: Leishmania major
[5] = test system: L. major amastigote; assay: L. major amastigote assay; assay type: cell-based; conditions: Leishmania major
[6] = test system: P. fal; assay: P. fal assay of Table 13 (strain not given); assay type: cell-based, P. falciparum; conditions: Plasmodium falciparum

Compound: Fc1cccc(COc2ccc(Nc3ccnc4cc(-c5cccc(N6CCOCC6)c5)ccc34)cc2Cl)c1 [NEU-942, N-(3-Chloro-4-((3-fluorobenzyl)oxy)phenyl)-7-(3-morpholinophenyl)quinolin-4-amine]
- EC50 [1]: 1200 nM
- CC50 [2]: > 5000 nM
- EC50 [3]: 2700 nM
- EC50 [4]: 1400 nM
- EC50 [5]: > 3000 nM
- EC50 [6]: 61 nM

Compound: CN1CCCN(S(=O)(=O)c2ccc(-c3ccc4c(Nc5ccc(OCc6cccc(F)c6)c(Cl)c5)ccnc4c3)cc2)CC1 [NEU-943, N-(3-Chloro-4-((3-fluorobenzyl)oxy)phenyl)-7-(4-((4-methyl-1,4-diazepan-1-yl)sulfonyl)phenyl)quinolin-4-amine]
- EC50 [1]: 87 nM
- CC50 [2]: 5000 nM
- EC50 [3]: 730 nM
- EC50 [4]: 400 nM
- EC50 [5]: 880 nM
- EC50 [6]: 94 nM

Compound: O=S(=O)(c1ccc(-c2ccc3c(Nc4ccc(OCc5ccccc5)c(Cl)c4)nccc3c2)cc1)N1CCOCC1 [NEU-948, N-(4-(Benzyloxy)-3-chlorophenyl)-6-(4-(morpholinosulfonyl)phenyl)isoquinolin-1-amine]
- EC50 [1]: 91 nM
- CC50 [2]: > 5000 nM
- EC50 [3]: > 50000 nM
- EC50 [4]: > 15000 nM
- EC50 [5]: > 3000 nM
- EC50 [6]: 3400 nM

Compound: CN1CCCN(S(=O)(=O)c2ccc(-c3ccc4nccc(Nc5ccc(OCc6cccc(F)c6)c(Cl)c5)c4c3)cc2)CC1 [NEU-958, N-(3-Chloro-4-((3-fluorobenzyl)oxy)phenyl)-6-(4-((4-methyl-1,4-diazepan-1-yl)sulfonyl)phenyl)quinolin-4-amine]
- EC50 [1]: 140 nM
- CC50 [2]: 4300 nM
- EC50 [3]: 930 nM
- EC50 [4]: 400 nM
- EC50 [5]: 2300 nM
- EC50 [6]: 86 nM

Compound: Fc1cccc(COc2ccc(Nc3ccnc4ccc(-c5cccc(N6CCOCC6)c5)cc34)cc2Cl)c1 [NEU-959, N-(3-Chloro-4-((3-fluorobenzyl)oxy)phenyl)-6-(3-morpholinophenyl)quinolin-4-amine]
- EC50 [1]: 1000 nM
- CC50 [2]: 10000 nM
- EC50 [3]: 6600 nM
- EC50 [4]: 900 nM
- EC50 [5]: 4000 nM
- EC50 [6]: 35 nM

Compound: CN1CCN(S(=O)(=O)c2ccc(-c3ccc4nccc(Nc5ccc(OCc6cccc(F)c6)c(Cl)c5)c4c3)cc2)CC1 [NEU-960, N-(3-Chloro-4-((3-fluorobenzyl)oxy)phenyl)-6-(4-((4-methylpiperazin-1-yl)sulfonyl)phenyl)quinolin-4-amine]
- EC50 [1]: 460 nM
- CC50 [2]: 6400 nM
- EC50 [3]: 5300 nM
- EC50 [4]: 600 nM
- EC50 [5]: 2000 nM
- EC50 [6]: 16000 nM

Compound: CN1CCCN(S(=O)(=O)c2ccc(-c3ccc4ccnc(Nc5ccc(OCc6cccc(F)c6)c(Cl)c5)c4c3)cc2)CC1 [NEU-962, N-(3-Chloro-4-((3-fluorobenzyl)oxy)phenyl)-7-(4-((4-methyl-1,4-diazepan-1-yl)sulfonyl)phenyl)isoquinolin-1-amine]
- EC50 [1]: 730 nM
- EC50 [3]: 4700 nM
- EC50 [4]: 1300 nM
- EC50 [5]: 2200 nM
- EC50 [6]: 86 nM

Compound: CN1CCCN(S(=O)(=O)c2ccc(-c3ccc4c(Nc5ccc(OCc6cccc(F)c6)c(Cl)c5)nccc4c3)cc2)CC1 [NEU-963, N-(3-Chloro-4-((3-fluorobenzyl)oxy)phenyl)-6-(4-((4-methyl-1,4-diazepan-1-yl)sulfonyl)phenyl)isoquinolin-1-amine]
- EC50 [1]: 390 nM
- EC50 [3]: 33000 nM
- EC50 [4]: 440 nM
- EC50 [5]: 4400 nM
- EC50 [6]: 410 nM

Compound: O=S(=O)(c1ccc(-c2ccc3nncc(Nc4ccc(OCc5ccccc5)c(Cl)c4)c3c2)cc1)N1CCOCC1 [NEU-1002, N-(4-(Benzyloxy)-3-chlorophenyl)-6-(4-(morpholinosulfonyl)phenyl)cinnolin-4-amine]
- EC50 [1]: 1200 nM
- CC50 [2]: > 15000 nM
- EC50 [3]: > 50000 nM
- EC50 [4]: > 15000 nM
- EC50 [5]: > 15000 nM
- EC50 [6]: 820 nM

Compound: CN1CCN(S(=O)(=O)c2ccc(-c3ccc4nncc(Nc5ccc(OCc6cccc(F)c6)c(Cl)c5)c4c3)cc2)CC1 [NEU-1003, N-(3-Chloro-4-((3-fluorobenzyl)oxy)phenyl)-6-(4-((4-methylpiperazin-1-yl)sulfonyl)phenyl)cinnolin-4-amine]
- EC50 [1]: 980 nM
- EC50 [3]: > 50000 nM
- EC50 [4]: > 15000 nM
- EC50 [5]: 1900 nM
- EC50 [6]: 130 nM

Compound: Fc1cccc(COc2ccc(Nc3cnnc4ccc(-c5cccc(N6CCOCC6)c5)cc34)cc2Cl)c1 [NEU-1012, N-(3-Chloro-4-((3-fluorobenzyl)oxy)phenyl)-6-(3-morpholinophenyl)cinnolin-4-amine]
- EC50 [1]: 1100 nM
- CC50 [2]: > 15000 nM
- EC50 [3]: > 50000 nM
- EC50 [4]: > 15000 nM
- EC50 [5]: > 15000 nM
- EC50 [6]: 540 nM

Compound: CN1CCCN(S(=O)(=O)c2ccc(-c3ccc4nncc(Nc5ccc(OCc6cccc(F)c6)c(Cl)c5)c4c3)cc2)CC1 [NEU-1013, N-(3-Chloro-4-((3-fluorobenzyl)oxy)phenyl)-6-(4-((4-methyl-1,4-diazepan-1-yl)sulfonyl)phenyl)cinnolin-4-amine]
- EC50 [1]: 580 nM
- CC50 [2]: 7300 nM
- EC50 [3]: 2200 nM
- EC50 [4]: 4100 nM
- EC50 [5]: 1060 nM
- EC50 [6]: 27 nM

Compound: Fc1cccc(COc2ccc(Nc3cnnc4cc(-c5cccc(N6CCOCC6)c5)ccc34)cc2Cl)c1 [NEU-1014, N-(3-Chloro-4-((3-fluorobenzyl)oxy)phenyl)-7-(3-morpholinophenyl)cinnolin-4-amine]
- EC50 [1]: 890 nM
- CC50 [2]: 11000 nM
- EC50 [3]: 45000 nM
- EC50 [4]: 9800 nM
- EC50 [5]: > 15000 nM
- EC50 [6]: 200 nM

Compound: O=S(=O)(c1ccc(-c2ccc3c(Nc4ccc(OCc5ccccc5)c(Cl)c4)cnnc3c2)cc1)N1CCOCC1 [NEU-1015, N-(4-(Benzyloxy)-3-chlorophenyl)-7-(4-(morpholinosulfonyl)phenyl)cinnolin-4-amine]
- EC50 [1]: 1200 nM
- CC50 [2]: > 11000 nM
- EC50 [3]: 15000 nM
- EC50 [4]: > 15000 nM
- EC50 [5]: > 15000 nM
- EC50 [6]: 150 nM

Compound: CN1CCN(S(=O)(=O)c2ccc(-c3ccc4c(Nc5ccc(OCc6cccc(F)c6)c(Cl)c5)cnnc4c3)cc2)CC1 [NEU-1016, N-(3-Chloro-4-((3-fluorobenzyl)oxy)phenyl)-7-(4-((4-methylpiperazin-1-yl)sulfonyl)phenyl)cinnolin-4-amine]
- EC50 [1]: 1000 nM
- EC50 [3]: 3100 nM
- EC50 [4]: 5700 nM
- EC50 [5]: 2000 nM
- EC50 [6]: 14 nM

Compound: Fc1cccc(COc2ccc(Nc3nncc4ccc(-c5cccc(N6CCOCC6)c5)cc34)cc2Cl)c1 [NEU-1035, N-(3-Chloro-4-((3-fluorobenzyl)oxy)phenyl)-7-(3-morpholinophenyl)phthalazin-1-amine]
- EC50 [1]: 290 nM
- EC50 [3]: > 50000 nM
- EC50 [4]: > 15000 nM
- EC50 [5]: 1700 nM
- EC50 [6]: 110 nM

Compound: O=S(=O)(c1ccc(-c2ccc3cnnc(Nc4ccc(OCc5ccccc5)c(Cl)c4)c3c2)cc1)N1CCOCC1 [NEU-1036, N-(4-(Benzyloxy)-3-chlorophenyl)-7-(4-(morpholinosulfonyl)phenyl)phthalazin-1-amine]
- EC50 [1]: 860 nM
- CC50 [2]: > 5200 nM
- EC50 [3]: > 50000 nM
- EC50 [4]: > 3400 nM
- EC50 [5]: > 4000 nM
- EC50 [6]: 540 nM

Compound: Fc1cccc(COc2ccc(Nc3nncc4cc(-c5cccc(N6CCOCC6)c5)ccc34)cc2Cl)c1 [NEU-1037, N-(3-Chloro-4-((3-fluorobenzyl)oxy)phenyl)-6-(3-morpholinophenyl)phthalazin-1-amine]
- EC50 [1]: 1400 nM
- EC50 [3]: > 50000 nM
- EC50 [4]: > 15000 nM
- EC50 [5]: 2200 nM
- EC50 [6]: 240 nM
